Read-outs that look alike come from different tables or passages of the source.
Experiments:
[1] = system: Influenza B Victoria/Florida; assay: Influenza B CPE assay, MDCK; assay type: cell-based; details: Influenza B virus, albumin content N/A
Description: (§1) The antiviral assays were cell line based and consisted in transfecting each of the viruses tested in a compatible cell line. Upon infection and after drug treatment, viral survival and cell toxicity were reported from the readout of three different assays: cytopathic effect (CPE), viral yield reduction (VYR), or immunofluorescence (IF).

[2] = system: Influenza B Yamagata/Brisbane; assay: Influenza B CPE assay, MDCK; assay type: cell-based; details: Influenza B virus, albumin content N/A
Description: as §1

[3] = system: Vero 76 cells; details: with CPE assays (SARS-CoV-2 WA1, Delta), not converted for FBS
[4] = in vitro; details: human, CC50 (μM), A549-ACE2; with CPE assays (SARS-CoV-2 WA1, Delta, OC43); not converted for FBS
[5] = system: Influenza A H1N1/WSN/33; assay: Influenza A virus IF assay, A549 (Method 7)
Method: A549 cells were infected with each viral strain at MOI 0.05. After 24 h post-infection with A/WSN/33 cells were fixed with 4% formaldehyde for 30 min. Cells were briefly washed with PBS, then permeabilized with 0.1% Triton X-100 in PBS for 15 minutes. Blocking occurred at room temperature for 1 hour with 0.5% BSA in PBS followed by incubation with the NP antibody (HT103, a gift from Thomas Moran) in 0.5% BSA in PBS for 1 hour at room temperature. Cells were washed with PBS 2× and incubated with a fluorescently-labeled secondary antibody, alexa-fluor-488 (Invitrogen), in 0.5% BSA in PBS with DAPI for 45 min at room temperature. Two washes with PBS were performed before imaging the cells on a Celigo Image Cytometer. Infected cells (488 nm) and total cells (DAPI) were quantified using the Celigo (Nexcelcom) imaging cytometer. Infectivity was measured by the accumulation of viral NP protein (fluorescence accumulation). Percent infection was quantified as ((Infected cells/Total cells)−Background)*100 and the DMSO control was then set to 100% infection for analysis. Data was fit using nonlinear regression and IC50s for each experiment were determined using GraphPad Prism version 8.0.2 (San Diego, CA). Cytotoxicity was also performed using the MTT assay (Roche), according to the manufacturer's instructions. […]

[6] = Cytotoxicity, XTT, MRC-5; details: human
[7] = system: SARS-CoV-2 USA-WA1/2020; assay: SARS-CoV-2 CPE assay, Vero 76 (Method 2); assay type: cell-based; details: Severe acute respiratory syndrome coronavirus 2, 2% FBS
[8] = system: A549-ACE2 cells; details: with CPE assays (SARS-CoV-2 WA1, Delta, OC43), not converted for FBS
[9] = system: SARS-CoV-2 USA-WA1/2020; assay: SARS-CoV-2 immunofluorescence (IF) assay, HeLa-ACE2 (Method 1); assay type: cell-based; details: Severe acute respiratory syndrome coronavirus 2, HeLa-ACE2, SARS-CoV-2 USA-WA1/2020, 2% FBS
[10] = system: 13 viruses and variants; assay: organism not typed; assay type: cell-based; details: read-out: antiviral activity (best EC50 per virus/strain/variant)
[11] = system: SARS-CoV-2 Delta (B.1.617.2); assay: SARS-CoV-2 IF assay, HeLa-ACE2 (Method 1); assay type: cell-based; details: 2% FBS
[12] = XTT cell viability assay, Huh-luc/neo-ET; assay type: cell-based; details: human, Huh-luc/neo-ET cells, with HCV replicon assay, not converted, read-out: CC50
Method: (§2) Twenty-four hours after seeding the cells, the cell culture supernatant was removed from each well and replaced with 175 μL fresh complete medium minus G418. Test compounds were evaluated at a high-test concentration of 10 μM and five serial half-logarithmic dilutions in three biological replicates. In three biological replicates, Sofosbuvir was evaluated in parallel at a high-test concentration of 1 μM and five serial half-logarithmic dilutions. Compounds were first serially diluted in DMSO to 400× of each final in-well concentration. An intermediate 8× solution was prepared in a complete medium and then added to the cells in a volume of 25 μL per well. A complete medium containing an equal percentage of DMSO (v/v) was added to vehicle-treated control cells. The final DMSO concentration was 0.25% (v/v) for all samples. The cells were incubated for an additional 72 hours at 37° C./5% CO2, then HCV replication was measured by luciferase activity and cell viability was assessed in parallel using an XTT colorimetric assay.
(§3) Huh-luc/neo-ET cell viability was measured at 72 hours after treatment using the tetrazolium dye XTT (2,3-bis(2-methoxy-4-nitro-5-sulfophenyI)-5[(phenylamino)carbonyl]-2H-tetrazolium hydroxide). Mitochondrial enzymes of metabolically active cells metabolize XTT-tetrazolium to a soluble formazan product. XTT solution was prepared fresh at 1 mg/mL in DMEM. Phenazine methosulfate (PMS) solution was prepared at 0.15 mg/mL in PBS and stored in the dark at −20° C. An XTT/PMS stock was prepared immediately before use by adding 40 μL of PMS per ml of XTT solution. Fifty microliters (50 μL) XTT/PMS were added per well, and the cells were incubated for 4 hours at 37° C. The cell culture plates were then sealed with adhesive plate sealers and shaken gently or inverted several times to mix the soluble formazan product. The formazan product was measured spectrophotometrically by absorbance at 450/650 nm on a Vmax plate reader (Molecular Devices). The raw data in Softmax Pro 5.4.2 software was imported into Microsoft Excel for further analysis. Data are presented as absorbance values (450/650 nm) or the percentage of viable cells relative to vehicle-treated control (mean+1—standard deviation, n=3 biological replicates from one independent experiment).

[13] = system: Huh-luc/neo-ET cells; assay: XTT cell viability assay, Huh-luc/neo-ET; assay type: cell-based; details: XTT, 72 hours, read-out: HCV 1b - TC50
Method: as §2, §3

[14] = system: SARS-CoV-2 Alpha (B.1.1.7); assay: SARS-CoV-2 IF assay, HeLa-ACE2 (Method 1); assay type: cell-based; details: 2% FBS
[15] = system: SARS-CoV-2 USA-WA1/2020; assay: SARS-CoV-2 viral yield reduction (VYR) assay, Caco-2 (Method 2); assay type: cell-based; details: Severe acute respiratory syndrome coronavirus 2, 2% FBS
Method: After sufficient virus replication occurs (3 days for SARS-CoV-2), a sample of supernatant is taken from each infected well (three replicate wells are pooled) and tested immediately or held frozen at −80° C. for later virus titer determination. After maximum CPE is observed, the viable plates are stained with neutral red dye. The incorporated dye content is quantified as described above to generate the EC50 and CC50 values.
Serial 1/10 dilutions of virus are made and plated into 4 replicate wells containing fresh cell monolayers of Vero E6 cells. Plates are then incubated, and cells are scored for presence or absence of virus after distinct CPE is observed, and the CCID50 calculated using the Reed-Muench method (24). […] Dividing EC90 by the CC50 gives the SI value for this test.

[16] = in vitro; details: African green monkey, CC50 (μM), Vero 76; with CPE assays (SARS-CoV-2 WA1, Delta); not converted for FBS
[17] = in vitro; details: human
[18] = system: SARS-CoV-2 Delta (B.1.617.2); assay: SARS-CoV-2 CPE assay, Vero 76 (Method 2); assay type: cell-based; details: Severe acute respiratory syndrome coronavirus 2, 2% FBS
[19] = system: MRC-5 cells; details: human, 6 days

Structure (SMILES): Cc1c(-c2ccc(O)cc2)n(Cc2ccc(OCCN3CCCCC3)cc2)c2ccc(O)cc12 [Pipendoxifene]
- EC50 ([1]; read-out: Corrected EC50): 4100 nM
- EC50 ([1]; read-out: EC50): 4100 nM
- EC50 ([2]; read-out: Corrected EC50): 6700 nM
- EC50 ([2]; read-out: EC50): 6700 nM
- CC50 [3]: 3200 nM
- CC50 [4]: > 10 µM
- EC50 [5]: 7490 nM
- CC50 at 6 days [6]: > 1000 nM
- EC50 [7]: 2600 nM
- CC50 [8]: > 15000 nM
- EC50 [9]: 675 nM
- EC50 [10]: < 10000 nM
- EC50 ([11]; SARS-CoV-2 Delta (B.1.617.2)): 677 nM
- EC50 ([11]; Severe acute respiratory syndrome coronavirus 2, HeLa-ACE2, SARS-CoV-2 Delta (B.1.617.2)): 740 nM
- CC50 at 72 h [12]: > 10000 nM
- CC50 [13]: > 10000 nM
- EC50 ([14]; SARS-CoV-2 Alpha (B.1.1.7)): 1200 nM
- EC50 ([14]; Severe acute respiratory syndrome coronavirus 2, HeLa-ACE2, SARS-CoV-2 Alpha (B.1.1.7)): 830 nM
- EC50 [15]: 540 nM
- CC50 [16]: 2.9 µM
- CC50 [17]: 1000 nM
- EC50 [18]: 2400 nM
- CC50 [19]: > 1000 nM
